In US8563547B2, “(6,7-dihydro-2-nitro-5H-imidazol[2,1-b][1,3]oxazin-6-yl) amide compounds, preparation methods and uses thereof” (Shanghai Sun-Sail Pharmaceutical Science & Technology Co., …, priority 2010, dated 2013):
Converted amounts (≈) assume the structure as drawn. Like-named read-outs stand apart in the source and are kept apart here.

Assays:
[1] = tested on: Mycobacterium tuberculosis strain H37Rv; experiment: Activity test for Mycobacterium tuberculosis (MIC, liquid medium, 96-well microplate); assay type: cell-based; conditions: for MIC: Mycobacterium tuberculosis, liquid medium, 37° C., read-out: Minimal inhibitory concentration for H37Rv; for activity for H37Rv, times as that of PA-824: relative to PA-824; for MIC for H37Rv, times as that of ethambutol: relative to ethambutol
Protocol: Tested Mycobacterium tuberculosis strain H37Rv was transferred to liquid medium, cultured for 2 weeks at 37° C., drew a little culture liquid of bacterium and placed into 4 mL liquid medium, added 10˜20 sterile glass bead of 2˜3 diameter, shook for 20˜30S, absolute-rest precipitated for 10˜20 min, aspirated bacterium suspension supernatant, turbidity was adjusted to 1 Maxwell unit with liquid medium, equivalent to 1×10^7CFU/mL for use. Each drug was dissolved to 1 mg/mL by adding an appropriate amount of DMSO, filtered through 0.22 μm filter. Again diluted to the required experimental concentration with liquid medium. The final concentration of test drugs were set as follows: 0.001 μg/mL, 0.002 μg/mL, 0.004 μg/mL, 0.008 μg/mL, 0.015 μg/mL, 0.03 μg/mL, 0.06 μg/mL, 0.12 μg/mL, 0.25 μg/mL, 0.5 μg/mL, 1 μg/mL, 2 μg/mL, 4 μg/mL, 8 μg/mL and 16 μg/mL, there totally are 15 concentration gradients. 100 μL of each above-mentioned drug solution was added to 96-well microplate, further added 100 μL […] bacteria liquid so that drug concentration could reach the set final concentration, cultured at 37° C. The same drug dilution was done in triplate in parallel, control group didn't added drug, inoculation amount was set to 100%, 10% and 1% respectively. Minimal inhibitory concentration (MIC) for Mycobacterium tuberculosis by each drug was observed, and compared with MIC results of first-line antituberculosis drug ethambutol and PA-824 in clinical research phase at the same time.

[2] = physchem; assay type: physicochemical; conditions: for solubility at 3 days: pH 1.2, simulated gastric fluid, thermodynamic from solid
Protocol: 3-5 mg tested compound was added to 0.5 mL pH=1.2 HCL aqueous solution, shook for 3 days in a shaker, samples were centrifuged at 10000 r/min for 5 min, aspirated […] supernatant to 50 mL volumetric flask, added water and metered volume to the mark to make sample solution; precisely weighted 2.6 mg sample to 50 mL volumetric flask, added an appropriate amount of methanol to dissolve. Added water and metered volume to the mark, shook up to give control sample solution. Loaded 20 μL sample solution and control sample solution respectively, tested for liquid phase. Calculated as follows: Solubility (mg/mL)=C(control)*25*A(sample)/A(control)
C(control): the concentration of control sample
A(sample): peak area of liquid phase of sample solution
A(control): peak area of liquid phase of control sample solution

[3] = Tissue distribution test in mice; assay type: in vivo; conditions: orally administrated 25 mg/kg
Protocol: (§1) 16 healthy male ICR mice with 18-22 g of body weight were used. Drugs were employed by intravenous or gavage administration, administration doses were 5 mg and 25 mg/kg, administration volume was 10 mL/kg. Fasted for 12 h before test with free access to water. Uniformly fed at 2 h after administration. 0.3 mL blood was drawn through mice post-glomus venous plexus according to set time points, placed in heparinized test tube, centrifuged at 3000 r/min for 10 min, separated plasma, frozen in refrigerator at −20° C. When detected, samples were treated according to plasma sample treatment method, drug concentration in plasma was determined by LC-MS method, and calculated its pharmacokinetic parameters.
After compound 1 was orally administrated to mice (25 mg/kg), the concentrations of the compound in […], lung, brain and plasma at different time was shown as FIG. 1.

[4] = Drug metabolism test: pharmacokinetics in mice; assay type: in vivo, ICR mice; conditions: for MRT last: read-out: MRT0-t
Protocol: as §1

[5] = male, ICR, mouse, IV (5 mg/kg), plasma
[6] = male, ICR, mouse, PO (25 mg/kg), plasma

In the case of `O=C(CCCN1CC(Oc2ccc(OC(F)(F)F)cc2)C1)N[C@@H]1COc2nc([N+](=O)[O-])cn2C1` [Compound 26, 4-(3-(4-(trifluoromethoxy)phenoxy)azetidin-1-yl)-N-((S)-6,7-dihydro-2-nitro-5H-imidazo [2,1-b][1,3]oxazin-6-yl)butyramide], the MIC [1] was 0.03 µg/mL (≈ 0.0618 µM), the “activity for H37Rv, times as that of PA-824” value (shortened to “activity for H37Rv, times”) [1] was 4 times and the “MIC for H37Rv, times as that of ethambutol” value (from here on “MIC for H37Rv, times as that”) [1] was 16 times. The “water-solubility, times as that of PA-824” value (“water-solubility, times” below) [2] was 90 times and the solubility at 3 days [2] was 846 µg/mL (≈ 1740 µM).

`CC[C@@H](CO)NCCN[C@@H](CC)CO` [ethambutol, reference compound] showed an MIC [1] of 0.5 µg/mL (≈ 2.45 µM).

For `CC(C)Oc1ccc(OC2CCN(CC(=O)N[C@@H]3COc4nc([N+](=O)[O-])cn4C3)CC2)cc1` [Compound 14], the MIC [1] was 0.06 µg/mL (≈ 0.131 µM), the “activity for H37Rv, times” value [1] was 2 times and the “MIC for H37Rv, times as that” value [1] was 8 times.

For `O=C(CN1CCC(Oc2ccc(OCCOC3CC3)cc2)CC1)N[C@@H]1COc2nc([N+](=O)[O-])cn2C1` [Compound 16, (S)-2-(4-(4-(2-(cyclopropoxy)ethoxy)phenoxy)piperid-1-yl)-N-(2-nitro-6,7-dihydro-5H-imidazo [2,1-b][1,3]oxazin-6-yl)acetamide], the MIC [1] was 0.03 µg/mL (≈ 0.0598 µM), the “activity for H37Rv, times” value [1] was 4 times and the “MIC for H37Rv, times as that” value [1] was 16 times.

For `O=C(CN1CCC(Oc2ccc(OC(F)(F)F)c(F)c2)CC1)N[C@@H]1COc2nc([N+](=O)[O-])cn2C1` [Compound 3, 2-(4-(3-fluoro-4-(trifluoromethoxy)phenoxy)piperid-1-yl)-N-((S)-6,7-dihydro-2-nitro-5H-imidazo[2,1-b][1,3]oxazin-6-yl)acetamide], the MIC [1] was 0.06 µg/mL (≈ 0.119 µM), the “activity for H37Rv, times” value [1] was 2 times and the “MIC for H37Rv, times as that” value [1] was 8 times.

`O=[N+]([O-])c1cn2c(n1)OC[C@@H](OCc1ccc(OC(F)(F)F)cc1)C2` [PA-824, reference compound] gave an MIC [1] of 0.12 µg/mL (≈ 0.334 µM) and a solubility at 3 days [2] of 9.4 µg/mL (≈ 26.2 µM).

In the case of `O=C(CN1CCC(Oc2ccc(OC(F)(F)F)cc2)CC1)N[C@@H]1COc2nc([N+](=O)[O-])cn2C1` [Compound 1, (S)-N-(6,7-dihydro-2-nitro-5H-imidazo [2,1-b][1,3]oxazin-6-yl)-2-(4-(4-(trifluoromethoxy)phenoxy)piperid-1-yl)acetamide], the “site of major distribution” value [3] was “lung and spleen”, the tissue distribution property ([3]; FIG. 1) was “good tissue distribution property” and the CLz ([4]; IV (5 mg/kg)) was 10.7 mL/min/kg. For the same compound, the AUC(0-inf) [4, 5] was 7860 ng·h/mL, the AUC(0-t) [4, 5] was 7850 ng·h/mL and the Cmax [4, 5] was 3880 ng/mL. For the same compound, the half-life [4, 5] was 2.8 h, the MRT last [4, 5] was 3.6 h and the AUC(0-inf) [4, 6] was 40200 ng·h/mL. The AUC(0-t) [4, 6] was 40100 ng·h/mL, the Cmax [4, 6] was 4790 ng/mL and the Tmax [4, 6] was 1 h. It also gave a half-life [4, 6] of 2.7 h, an MRT last [4, 6] of 5 h and a Vd ([4]; male, ICR, mouse, plasma, IV (5 mg/kg), read-out: Vz) of 2.3 L/kg. For the same compound, the bioavailability ([4]; male, ICR, mouse, plasma, PO 25 mg/kg vs IV 5 mg/kg, read-out: F (oral bioavailability)) was 102%, the MIC [1] was 0.03 µg/mL (≈ 0.0618 µM) and the “activity for H37Rv, times” value [1] was 4 times. For the same compound, the “MIC for H37Rv, times as that” value [1] was 16 times, the “water-solubility, times” value [2] was 79 times and the solubility at 3 days [2] was 746 µg/mL (≈ 1540 µM).

With `O=C(CCN1CCC(Oc2ccc(OC(F)(F)F)cc2)CC1)N[C@@H]1COc2nc([N+](=O)[O-])cn2C1` [Compound 22, (S)-N-(6,7-dihydro-2-nitro-5H-imidazo [2,1-b][1,3]oxazin-6-yl)-3-(4-(4-(trifluoromethoxy)phenoxy)piperid-1-yl)propanamide] the MIC [1] was 0.06 µg/mL (≈ 0.12 µM), the “activity for H37Rv, times” value [1] was 2 times and the “MIC for H37Rv, times as that” value [1] was 8 times. The “water-solubility, times” value [2] was 72 times and the solubility at 3 days [2] was 677 µg/mL (≈ 1360 µM).

With `O=C(CN1CCN(Cc2ccc(OC(F)(F)F)cc2)CC1)N[C@@H]1COc2nc([N+](=O)[O-])cn2C1` [Compound 17, (S)-N-(6,7-dihydro-2-nitro-5H-imidazo [2,1-b][1,3]oxazin-6-yl)-2-(4-(4-(trifluoromethoxy)benzyl)piperazin-1-yl)acetamide] the MIC [1] was 0.12 µg/mL (≈ 0.248 µM), the “water-solubility, times” value [2] was 155 times and the solubility at 3 days [2] was 1460 µg/mL (≈ 3010 µM).
